Experimental data taken from patent US8927033B2, “Hyperlipemia-ameliorating agent, anemia-ameliorating composition, uric-acid-level-reducing composition, and food or beverage” (Lion Corporation, priority 2009, dated 2015).

System: Type 2-diabetes model mice KK-Ay/Ta Jc1
Test: Study on hyperlipemia-ameliorating effects (plasma neutral fat, total cholesterol, free fatty acid, visceral fat, body weight)
Type: in vivo
Conditions: for Body weight (average g/±SD) / Neutral fat level (average mg/dL ± SD) / Free fatty acid level (average mEq/L ± SD) / Total cholesterol level (average mg/dL ± SD) / Visceral fat level (average g ± SD): 0.05% by mass in feed CE2, 5 days; for Body weight (average g/±SD) / Neutral fat level (average mg/dL ± SD): overnight fast; for Body weight (average g/±SD): control group 52.3 ± 4.2; for cholesterol level-regulating effect compared with the control group / free fatty acid level-regulating effect compared with the control group / reduction in body weight compared with the control group / reduction in the visceral fat level compared with the control group / neutral fat level-regulating effect compared with the control group: in words, 0.05% (aglycons) or 1.0% by mass (products) in feed, 5 days; for neutral fat level-regulating effect compared with the control group: Dunnett's test; for Neutral fat level (average mg/dL ± SD) / Free fatty acid level (average mEq/L ± SD) / Total cholesterol level (average mg/dL ± SD): plasma; for Neutral fat level (average mg/dL ± SD): control group 407.3 ± 20.9; for Free fatty acid level (average mEq/L ± SD): control group 1.95 ± 0.3; for Total cholesterol level (average mg/dL ± SD): control group 195.5 ± 10.7; for Visceral fat level (average g ± SD): retroperitoneal + epididymal + perirenal fat, control group 8.2 ± 1.0
Excerpt: Protopanaxatriol (PPT) (product of Funakoshi Corporation), panaxatriol (PT) (product of Funakoshi Corporation), protopanaxadiol (PPD) (product of Funakoshi Corporation) and panaxadiol (PD) (product of Funakoshi Corporation) were each added to feed CE2 (product of CLEA Japan, Inc.) so that the concentration thereof was 0.05% by mass.
Similarly, the strong acid-treated Panax notoginseng product (Production Example 1) and Panax notoginseng powder (product of MATSUURA YAKUGYO CO., LTD.) were each added to feed CE2 (product of CLEA Japan, Inc.) so that the concentration thereof was 1.0% by mass.
Feed CE2 (product of CLEA Japan, Inc.) containing no other additives was used as feed for the control group.
Type 2-diabetes model mice KK-Ay/Ta Jc1 (male, 4 weeks old, 8 mice/group, product of CLEA Japan, Inc.) were preliminarily bred for 7 days. Thereafter, they were bred for 5 days with the above-prepared feed CE2, containing no other additives or containing PPT, PT, PPD, PD, the strong acid-treated Panax notoginseng product or Panax notoginseng powder.
The mice bred for 5 days in the above-described manner were measured for the body weight after an overnight fast. The blood was collected from them. The collected blood sample was used to measure the plasma neutral-fat level with […] (product of Wako Pure Chemical Industries, Ltd.), the plasma total-cholesterol level with CHOLESTEROL E-TEST WAKO (product of Wako Pure Chemical Industries, Ltd.) and the plasma free-fatty-acid level with […] (product of Wako Pure Chemical Industries, Ltd.). In addition, retroperitoneal fat, fat surrounding the epididymis, and fat surrounding the kidney were sampled and weighed. The total mass thereof was used as the visceral fat level. The above-measured plasma neutral-fat level, plasma total-cholesterol level, plasma free-fatty-acid level, visceral fat level and body weight were verified using the Dunnett's multiple test. A p value of 0.05 or lower was considered statistically significant.

Compound	Body weight (average g/±SD)	cholesterol level-regulating effect compared with the control group	free fatty acid level-regulating effect compared with the control group	reduction in body weight compared with the control group	reduction in the visceral fat level compared with the control group	neutral fat level-regulating effect compared with the control group	Neutral fat level (average mg/dL ± SD)	Free fatty acid level (average mEq/L ± SD)	Total cholesterol level (average mg/dL ± SD)	Visceral fat level (average g ± SD)
CC(C)=CCCC(C)(O)[C@H]1CC[C@]2(C)[C@@H]1[C@H](O)C[C@@H]1[C@@]3(C)CC[C@H](O)C(C)(C)[C@@H]3CC[C@]12C (stereo in doubt) [PPD, protopanaxadiol]	46.8 ± 2.6 g	significantly superior to that of the control group	significantly superior to that of the control group	significant reduction in body weight	significant reduction in the visceral fat level	significantly superior to that of the control group	151.4 ± 26.9 mg/dL	0.81 ± 0.08 mEq/L	123.2 ± 19.6 mg/dL	5.9 ± 1.3 g
CC1(C)CCC[C@](C)([C@H]2CC[C@]3(C)[C@@H]2[C@H](O)C[C@@H]2[C@@]4(C)CC[C@H](O)C(C)(C)[C@@H]4CC[C@]23C)O1 [PD, panaxadiol]	47.3 ± 1.9 g	significantly superior to that of the control group	significantly superior to that of the control group	significant reduction in body weight	significant reduction in the visceral fat level	significantly superior to that of the control group	180.7 ± 34.2 mg/dL	1.04 ± 0.12 mEq/L	101.5 ± 15.6 mg/dL	5.5 ± 1.6 g
CC(C)=CCC[C@](C)(O)[C@H]1CC[C@]2(C)[C@@H]1[C@H](O)C[C@@H]1[C@@]3(C)CC[C@H](O)C(C)(C)[C@@H]3[C@@H](O)C[C@]12C [PPT, Protopanaxatriol]	45.3 ± 2.2 g	significantly superior to that of the control group	significantly superior to that of the control group	significant reduction in body weight	significant reduction in the visceral fat level	significantly superior to that of the control group	138.5 ± 25.3 mg/dL	0.93 ± 0.08 mEq/L	128.3 ± 17.8 mg/dL	5.5 ± 1.3 g
CC1(C)CCC[C@](C)([C@H]2CC[C@]3(C)[C@@H]2[C@H](O)C[C@@H]2[C@@]4(C)CC[C@H](O)C(C)(C)[C@@H]4[C@@H](O)C[C@]23C)O1 [PT, panaxatriol]	43.9 ± 2.8 g	significantly superior to that of the control group	significantly superior to that of the control group	significant reduction in body weight	significant reduction in the visceral fat level	significantly superior to that of the control group	163 ± 32.8 mg/dL	0.84 ± 0.07 mEq/L	102.9 ± 16.7 mg/dL	–
